Reference: patent US20120202814A1, “COMPOUNDS WITH DDX3 INHIBITORY ACTIVITY AND USES THEREOF” (UNIVERSITÀ DEGLI STUDI DI SIENA, priority 2009, published 2012)
Like-named read-outs stand apart in the source and are kept apart here.

What was measured:
PBMCs = assay: Cell viability / cytotoxicity on PBMCs; assay type: cell-based; conditions: PBMCs CC50 / antiviral EC50
Excerpt: (§1) Cell viability in the presence of the compounds has been determined by standard MTT assays.

[1] = Cell viability / cytotoxicity on PBMCs; assay type: cell-based; conditions: human; PBMCs; Table 2 prints no unit; read-out: Cytotoxicity (CC50) PBMCs, dose required to reduce 50% cell vitality
Excerpt: as §1

[2] = target: T1, human DDX3 (ATPase activity) (Homo sapiens, UniProt O00571); assay: Human DDX3 ATPase activity assay (luciferase-based luminescence); assay type: biochemical; conditions: DDX3 ATPase activity; read-out: Ki (μM), apparent equilibrium dissociation constant for the inhibitor to the target enzyme DDX3
T1 construct: made in house; host or cells: E. coli
Method: ATPase activity was tested with a luciferase-based luminescence assay (Easylite-Kinase, Perkin Elmer) on 96 wells microtiter plates. Briefly, recombinant purified human DDX3 (50-100 ng) was incubated in a 15 μL total reaction volume with reaction buffer (25 mM TrisHCl pH 7.5, 5 mM MgCl2), in the presence of increasing amounts of ATP and/or different combinations of ATP and the inhibitor to be tested. Reference curves in the absence of inhibitor (giving the 100% of enzymatic activity) and in the absence of enzyme (giving the baseline), were also included in each experiment. Reading was performed with a Microbeta Trilux (Perkin Elmer) luminometer, according to the manufacturer's protocol.
ATPase reactions were performed as described, in the presence of increasing amounts of inhibitor and variable ATP concentrations. Variations of the initial velocities of the reaction as a function of ATP concentrations in the absence or presence of 4 were analyzed with the equation: […]
Variation of the % inhibition as a function of compound FE15 at different ATP concentrations were fitted to the equation for cooperative binding: […]
where Vmax is the apparent maximal rate of the reaction in the absence of the inhibitor, [I] is the variable inhibitor concentration, n is the cooperativity index and Ki(app) is the apparent inhibition constant. Comparatively, fitting was done with the same Eq. (2) where n was kept fixed at the value of 1 (non-cooperativity hypothesis). F test was used to compare the two fittings and p value was calculated.
Human recombinant DDX3 was cloned, expressed and purified as described (Franca et al. Proteins 2007, 67, 1128-37).
The anti-DDX3 activity of the compounds of the invention was evaluated by in vitro ATPase activity assay using the recombinant human DDX3 protein produced in E. coli. The potency of inhibition (Ki) for each molecule was calculated, representing the concentration of the inhibitor able to reduce the DDX3 ATPase activity by 50%

MOLT-4 = assay: Cell viability / cytotoxicity on MOLT-4 cells; assay type: cell-based; conditions: MOLT-4 CC50 / antiviral EC50
Excerpt: as §1

[3] = Cell viability / cytotoxicity on MOLT-4 cells; assay type: cell-based; conditions: human, MOLT-4 cells; MOLT-4; Table 2 prints no unit; read-out: Cytotoxicity (CC50) MOLT-4, dose required to reduce 50% cell vitality
Excerpt: as §1

HIV-1 = assay: Antiviral assay, HIV-1 replication in infected PBMCs (viral RNA in supernatant); assay type: cell-based; conditions: for EC50: Human immunodeficiency virus 1, PBMC; for viral RNA, multiple rounds of replication: PBMC, wild type HIV-1, 5 days post infection, FE15 50 μM, FE66 (35b) 5 μM
Method: (§2) FIG. 1. A) Antiviral activity (expressed as % of viral load with respect to the control) of compounds FE56 and FE66 at 0.3 μM and 3 μM doses against single round HIV-1 replication in HeLaCD4+ cells infected with a wild type HIV-1 strain. Measurements were performed at 72 h post infection. B) Antiviral activity of compounds FE15 and FE66 on HIV-1 replication in phytohemagglutinin-stimulated peripheral blood mononuclear cells (PBMCs) […] with HeLa CD4^+-cell culture supernatants containing wild type HIV. Compounds were tested at 50 μM (FE15) and 5 μM (FE66). The HIV-1 RNA was quantified in the cell culture supernatant after 3, and 5 days of incubation. Results are expressed as HIV RNA copies/ml. Control (white bars).
FIG. 2. Antiviral activity of DDX3 inhibitors. A) Comparison of the antiviral activity (expressed as % of viral RNA with respect to the control) on infected PBMCs of a fixed dose of selected inhibitors. Measurements were performed at 72 h post infection. Values are the means of three independent replicates. Error bars are ±SD. White bars: control without drugs; dark grey bar: positive control with AZT (0.01 μM); black bar: first generation inhibitor FE15 (50 μM); light grey bars: second generation DDX3 inhibitors FE66, 11d and 38 (3 μM). B) Dose-response curves for the inhibiton of HIV-1 replication (expressed as % of viral RNA with respect to the control) in infected PBMCs by FE15 (circles) and 38 (triangles). Measurements were performed at 72 h post infection. Values are the means of three independent replicates. Error bars are ±SD.
In detail, 0.5 μg of each HIV-1 plasmid construct was transfected into CD4 HeLa cells by using the lipofectin reagent, according to the recommendations of the manufacturer (Invitrogen, Groningen, The Netherlands). After 3 days of incubation at 37° C., the cell supernatants, which contained reconstituted viable recombinant viruses, were collected. Quantification of the newly produced recombinant strains was obtained by determination of the HIV RNA copy number in the cell culture supernatants. Successively, 10 ml of transfected HeLa CD4^+-cell culture supernatants containing wild-type, and mutated recombinant HIV strain […], was used to infect aliquots of 10×10^6 phytohemagglutinin-stimulated peripheral blood mononuclear cells (PBMCs) from HIV-seronegative blood donors. After 4 h of incubation, supernatants were removed and infected PBMCs were incubated at 37° C. in 10 ml of RPMI 1640 medium (Eurobio, Les Ulis Cedex B, France) supplemented with 20% fetal calf serum (Life Technologies, Ltd., Paisley, Scotland), 2 mM l-glutamine, 100 U of penicillin per ml, 100 μg of streptomycin per ml, 10% interleukin-2 (ZeptoMetrix Co., Buffalo, N.Y.), 5 μg of hydrocortisone (Sigma Chemical Co.) per ml and with fourfold dilutions of antiretroviral drugs. No-drug controls for each drug dilution were included in each assay. After 3, 5 and 7 days of incubation the HIV-1 RNA in the cell culture supernatant was quantified. Recombinant HIV-1 strains from treatment-naive patients and multidrug resistance-associated changes were assayed in parallel. The degree of inhibition of viral replication was measured by determining the HIV-1 RNA level in the supernatants of cell cultures and was expressed as the fold increase in the 50% inhibitory concentrations (IC50s) for resistant recombinant HIV-1 variants compared with the IC50s for the wild-type recombinant variant. Each test was performed in triplicate.

[4] = Cell viability / cytotoxicity on HeLa cells; assay type: cell-based; conditions: human, HeLa cells (cervical cancer cell line)
Method: as §1
(§3) Selected compounds from Table 1 were tested against the cervical cancer HeLa cell line for antiproliferative activity. Cell viability was measured with the CellTiter viability assay (Table 2). Table 3 lists the calculated antiproliferative potencies (EC50, dose required to suppress 50% of cell viability) for a series of representative compounds of the invention.

HeLa cells = assay: Cell viability / cytotoxicity on HeLa cells; assay type: cell-based; conditions: for Selectivity index HeLa, CC50/EC50: HeLa CC50 / antiviral EC50
Method: as §1, §3

wild type HIV-1 strain = assay: HIV-1 single round replication in HeLaCD4+ cells; assay type: cell-based; conditions: wild type HIV-1, 0.3 μM and 3 μM doses, 72 h post infection
Method: as §2
Selected compounds from Table 1 were tested against HIV-1 replication in two different model systems.

[5] = test system: cervical cancer HeLa cell line; assay: Antiproliferative activity against HeLa cells (CellTiter viability assay); assay type: cell-based; conditions: Homo sapiens
Method: as §3

[6] = 72 h, read-out: EC50, anti-HIV activity
[7] = read-out: Antiviral activity, dose required to reduce 50% viral proliferation (measured as viral RNA load)
[8] = HeLa, Table 2 prints no unit, text gives μM, read-out: Cytotoxicity (CC50) HeLa, dose required to reduce 50% cell vitality

T1 sequence (O00571 whole entry): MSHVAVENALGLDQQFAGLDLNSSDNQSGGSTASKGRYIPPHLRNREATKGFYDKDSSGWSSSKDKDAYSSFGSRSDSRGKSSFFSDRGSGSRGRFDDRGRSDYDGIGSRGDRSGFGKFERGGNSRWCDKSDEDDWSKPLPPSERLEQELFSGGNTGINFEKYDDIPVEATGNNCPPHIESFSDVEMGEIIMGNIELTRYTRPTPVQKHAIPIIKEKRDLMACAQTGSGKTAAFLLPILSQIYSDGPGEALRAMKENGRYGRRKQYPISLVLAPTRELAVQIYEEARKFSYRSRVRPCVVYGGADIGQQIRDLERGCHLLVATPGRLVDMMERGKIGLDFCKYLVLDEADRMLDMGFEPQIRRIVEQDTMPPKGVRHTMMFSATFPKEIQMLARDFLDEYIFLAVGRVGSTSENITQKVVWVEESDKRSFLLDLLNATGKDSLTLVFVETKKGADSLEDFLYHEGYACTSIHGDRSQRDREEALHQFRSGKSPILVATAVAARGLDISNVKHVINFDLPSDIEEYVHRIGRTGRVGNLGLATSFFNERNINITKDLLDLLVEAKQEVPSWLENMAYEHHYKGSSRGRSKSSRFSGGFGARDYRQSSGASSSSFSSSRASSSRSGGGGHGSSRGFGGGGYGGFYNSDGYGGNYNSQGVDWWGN

SMILES	Selectivity index PBMCs, CC50/EC50 (PBMCs)	CC50 [1] [µM]	melting point [°C]	Ki [2] [µM]	Selectivity index MOLT-4, CC50/EC50 (MOLT-4)	CC50 [3] [µM]	reduction of viral load compared with 11d and 38 at 3 μM (HIV-1; HIV-1 infected PBMCs, compound at 50 μM, 72 h post infection)	EC50 (HIV-1; [6]) [µM]	EC50 (HIV-1; [7]) [µM]	viral RNA, multiple rounds of replication (HIV-1)	CC50 ([4]; read-out: CC50, cytotoxicity on HeLa cells) [µM]	Selectivity index HeLa, CC50/EC50 (HeLa cells)	CC50 (HeLa cells; [8]) [µM]	viral load (viral RNA copies), single-round replication (wild type HIV-1 strain)	EC50 ([5]; 48 hours, read-out: EC50 (μM) 48 hours, dose required to suppress 50% of cell viability) [µM]	EC50 ([5]; 72 hours, read-out: EC50 (μM) 72 hours, dose required to suppress 50% of cell viability) [µM]	CC50 [4, 8] [µM]
O=C(CCN1C(=O)/C(=C/c2cccc(Br)c2)SC1=S)Nc1ccccc1O [FE-15, (Z)-3-(5-(3-Bromobenzylidene)-4-oxo-2-thioxothiazolidin-3-yl)-N-(2-hydroxyphenyl)propanamide]	1.8	> 150	222 to 224	4.5	2.4	> 200	comparable effects	83	83 ± 7	significant reduction of viral RNA	> 200	2.4	> 200	–	–	–	–
O=C1Nc2ccccc2/C1=N/Nc1nc(Nc2ccccc2)nc(Nc2ccccc2)n1 [FE-56]	–	–	–	0.4	–	–	–	–	–	–	–	–	–	dose-dependent reduction of viral load	–	–	–
O=C(CCN1C(=O)/C(=C/c2cccc(F)c2)SC1=S)Nc1ccccc1O [Compound 35b, 3-((Z)-5-(3-Fluorobenzylidene)-4-oxo-2-thioxothiazolidin-3-yl)-N-(2-hydroxyphenyl) propanamide]	6.7	50 ± 5	210 to 211	0.3	6.7	50 ± 10	–	7.5	7.5 ± 0.7	significant reduction of viral RNA	–	6.7	–	dose-dependent reduction of viral load	50	10	50 ± 5
